Some test systems named below: UO-31; CCRF-CEM; Malme-3M; HCC 2998; A498; IGROV-1; SK-MEL-5; RPMI-8226; SR; HOP-62; SF-295; M14; K562; ACHN; SN12C; SK-MEL-2; SK-MEL-28; DU-145; PC-3; T47D.
Common to all, as to test: inhibition of tumour cell growth, NCI panel, 48 h

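Briefly, cells in 96-well plates were exposed to five compound concentrations for 48 h, and endpoints were estimated by linear interpolation. GI50 is the concentration that inhibits growth by half.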 Calls of active or inactive are those of the source. Cut-off read from the data, not from the text of the source: active = GI50 up to about 1.1 µM and inactive = higher.

Consider 12 compounds from ChEMBL document CHEMBL1201862, “PubChem BioAssay data set” (2004).

`O=c1c(-c2cccc3ccccc23)c(-c2cccc3ccccc23)c1=O`: the GI50 in the assay on UO-31 is 11.8 µM (inactive); in the assay with CCRF-CEM, 0.395 µM (active); in the assay on Malme-3M it was 2.18 µM (inactive); in the assay with HCC 2998, 0.979 µM (active); in the assay on A498 it was 2.45 µM (inactive); in the assay on IGROV-1, 2.6 µM (inactive). The GI50 was 3 µM (inactive) in the assay with SK-MEL-5; 0.736 µM (active) in the assay with RPMI-8226; 1.43 µM (inactive) in the assay with SR; 3.57 µM (inactive) in the assay on HOP-62; 0.446 µM (active) with SF-295; 2.24 µM (inactive) in the assay on M14. The GI50 in the assay on K562 is 0.161 µM (active); in the assay on ACHN, 0.716 µM (active); in the assay on SN12C it was 5.06 µM (inactive); in the assay with SK-MEL-2 it was 2.29 µM (inactive); in the assay on SK-MEL-28, 10.6 µM (inactive).
On to `CCC(CCCN)Nc1cc(OC)cc2cccnc12` (stereo not given), for which the GI50 is 70 µM (inactive) in the assay with UO-31; > 100 µM (inactive) with DU-145; 48.9 µM (inactive) with CCRF-CEM; > 100 µM (inactive) in the assay with PC-3; 38.7 µM (inactive) in the assay on Malme-3M; 22.7 µM (inactive) in the assay with HCC 2998. In addition, the GI50 was > 100 µM (inactive) in the assay on A498; 87.3 µM (inactive) in the assay with IGROV-1; 85.1 µM (inactive) with SK-MEL-5; 79.6 µM (inactive) in the assay on SR; > 100 µM (inactive) in the assay on HOP-62; > 100 µM (inactive) in the assay on SF-295. Besides, the GI50 is 41.3 µM (inactive) in the assay with M14; 57 µM (inactive) in the assay with K562; > 100 µM (inactive) with ACHN; > 100 µM (inactive) in the assay with SN12C; > 100 µM (inactive) with SK-MEL-2; > 100 µM (inactive) in the assay on SK-MEL-28.
As for `CC1(O)C(C)(O)C2(C)O[Te]3(OC12C)OC1(C)C(C)(O)C(C)(O)C1(C)O3` (stereo not given), the GI50 in the assay on UO-31 is 27.5 µM (inactive); in the assay with CCRF-CEM, 2.41 µM (inactive); with Malme-3M it was 96.2 µM (inactive); with HCC 2998, 42.7 µM (inactive); in the assay with A498, > 10 µM (inactive); in the assay with IGROV-1, 12.3 µM (inactive). The GI50 is 15 µM (inactive) in the assay with SK-MEL-5; 15.5 µM (inactive) in the assay with RPMI-8226; 17.2 µM (inactive) with SR; > 100 µM (inactive) in the assay with HOP-62; 15.3 µM (inactive) in the assay with SF-295; > 100 µM (inactive) in the assay on M14. Also, the GI50 was 9.79 µM (inactive) in the assay on K562; 31.3 µM (inactive) in the assay on ACHN; 23.1 µM (inactive) with SN12C; 44.6 µM (inactive) in the assay on SK-MEL-2; 16.2 µM (inactive) in the assay with SK-MEL-28.
For `O=NN(CCCl)C(=O)N[C@H]1CC[C@H](CC(=O)O)CC1`, the GI50 in the assay on UO-31 is > 100 µM (inactive); in the assay with CCRF-CEM, 21.1 µM (inactive); with Malme-3M, > 82.2 µM (inactive); in the assay with HCC 2998, > 100 µM (inactive); in the assay on A498 it was > 100 µM (inactive); in the assay with IGROV-1 it was > 100 µM (inactive). Further, the GI50 in the assay with SK-MEL-5 is > 100 µM (inactive); in the assay on RPMI-8226, 33.1 µM (inactive); in the assay with SR, 32.2 µM (inactive); in the assay with HOP-62, > 94.6 µM (inactive); in the assay on SF-295 it was 34.8 µM (inactive); with M14 it was > 100 µM (inactive). The GI50 in the assay on K562 was 60.3 µM (inactive); with ACHN, > 100 µM (inactive); in the assay with SN12C, 66.8 µM (inactive); in the assay on SK-MEL-2 it was > 100 µM (inactive); with SK-MEL-28, > 100 µM (inactive).
Regarding `O=C1CCCC2COc3ccc(O)c1c32` (stereo not given), the GI50 in the assay with UO-31, in the assay on CCRF-CEM, in the assay with Malme-3M, in the assay on HCC 2998, in the assay on A498 and in the assay with IGROV-1 was > 100 µM (inactive) throughout. For the same compound, the GI50 with SK-MEL-5, in the assay with RPMI-8226, in the assay on SR, in the assay with HOP-62, with SF-295 and in the assay on M14 was > 100 µM (inactive) each time. In addition, the GI50 in the assay on K562, with ACHN, in the assay with SN12C, with SK-MEL-2 and with SK-MEL-28 was > 100 µM (inactive) in each case.
Turning to `Cc1no[n+]([O-])c1/C=N/NS(=O)(=O)c1ccccc1`, the GI50 is > 100 µM (inactive) with UO-31; > 10 µM (inactive) in the assay with CCRF-CEM; > 100 µM (inactive) in the assay with Malme-3M; > 100 µM (inactive) in the assay on HCC 2998; 75.3 µM (inactive) with A498; > 100 µM (inactive) in the assay on IGROV-1. Moreover, the GI50 with SK-MEL-5, in the assay with RPMI-8226, in the assay on SR, with HOP-62, in the assay on M14 and with K562 was > 100 µM (inactive) in each case. Further, the GI50 in the assay on SN12C, with SK-MEL-2 and in the assay with SK-MEL-28 was > 100 µM (inactive) throughout.
As to `COC(=O)CC(NC(=O)OCc1ccccc1)C(C(=O)OCc1ccccc1)C1(C)OCCO1` (stereo not given), the GI50 in the assay with UO-31 was 18.2 µM (inactive); in the assay on CCRF-CEM it was 26.6 µM (inactive); in the assay with Malme-3M, 33.3 µM (inactive); with HCC 2998, 61.9 µM (inactive); in the assay on A498 it was 18.2 µM (inactive); in the assay with IGROV-1, 40 µM (inactive). Also, the GI50 was 17.5 µM (inactive) in the assay on SK-MEL-5; 22.1 µM (inactive) in the assay on RPMI-8226; 19.1 µM (inactive) in the assay with SR; 47.5 µM (inactive) with HOP-62; 32.4 µM (inactive) with SF-295; 40.7 µM (inactive) in the assay on M14. In addition, the GI50 in the assay with K562 was 43.4 µM (inactive); with ACHN, 34.9 µM (inactive); in the assay with SN12C, 47.4 µM (inactive); in the assay on SK-MEL-2, 20 µM (inactive); with SK-MEL-28, 66.5 µM (inactive).
In the case of `C/C(=C1/N=C(c2cc([N+](=O)[O-])ccc2Cl)N(c2ccc(Br)cc2)C1=O)c1ccc(N(CCC#N)CCC#N)cc1C`, the GI50 in the assay on UO-31 was 24.7 µM (inactive); in the assay with CCRF-CEM, 12.3 µM (inactive); in the assay on Malme-3M it was 77.8 µM (inactive); with HCC 2998 it was 32.1 µM (inactive); with A498 it was 25.7 µM (inactive); in the assay with IGROV-1, 28.4 µM (inactive). Also, the GI50 was 13.7 µM (inactive) with SK-MEL-5; 28.1 µM (inactive) in the assay on RPMI-8226; 7.98 µM (inactive) in the assay on SR; 19.8 µM (inactive) in the assay on HOP-62; 79.3 µM (inactive) in the assay with SF-295; 13.6 µM (inactive) in the assay with M14. Besides, the GI50 in the assay on K562 is 7.78 µM (inactive); in the assay with ACHN, 31.5 µM (inactive); with SN12C, 40.4 µM (inactive); with SK-MEL-2 it was 21.8 µM (inactive); in the assay on SK-MEL-28, 49.5 µM (inactive).
For `Cc1ccc(C(=O)N/N=C(\N=N\c2ccccc2[N+](=O)[O-])c2ccc(N(C)C)cc2)cc1`, the GI50 is 89.1 µM (inactive) in the assay on UO-31; > 100 µM (inactive) in the assay with CCRF-CEM; > 100 µM (inactive) in the assay with PC-3; 60.5 µM (inactive) in the assay on HCC 2998; > 100 µM (inactive) in the assay with IGROV-1; > 100 µM (inactive) with SK-MEL-5. For the same compound, the GI50 in the assay on RPMI-8226 was > 100 µM (inactive); with SR, 33.7 µM (inactive); in the assay on SF-295, > 100 µM (inactive); in the assay with M14 it was > 100 µM (inactive); in the assay on K562, > 100 µM (inactive); in the assay on ACHN it was > 100 µM (inactive). Moreover, the GI50 in the assay with SN12C, with SK-MEL-2 and in the assay with SK-MEL-28 was > 100 µM (inactive) each time.
For `C[N+](C)(C)CC(=O)N/N=C(/Cc1nc2ccc([N+](=O)[O-])cc2nc1O)C(=O)Nc1cc(C(F)(F)F)ccc1Cl`, the GI50 is 40.8 µM (inactive) in the assay on UO-31; 66.7 µM (inactive) in the assay on CCRF-CEM; > 100 µM (inactive) in the assay with Malme-3M; > 100 µM (inactive) with HCC 2998; > 100 µM (inactive) in the assay on A498; > 100 µM (inactive) in the assay with IGROV-1. Besides, the GI50 is > 100 µM (inactive) in the assay on SK-MEL-5; 63.1 µM (inactive) in the assay with RPMI-8226; > 100 µM (inactive) with SR; > 100 µM (inactive) in the assay on HOP-62; > 100 µM (inactive) with SF-295; > 100 µM (inactive) with M14. In addition, the GI50 with K562, in the assay with ACHN, in the assay with SN12C, with SK-MEL-2 and in the assay with SK-MEL-28 was > 100 µM (inactive) each time.
Regarding `COc1cc(/C=C2/SC(c3ccccc3)N(c3cccc(NC(C)=O)c3)C2=O)cc(OC)c1OC` (stereo not given), the GI50 in the assay with UO-31 was 16.6 µM (inactive); in the assay on DU-145, 92.3 µM (inactive); in the assay on Malme-3M, 28.8 µM (inactive); in the assay with HCC 2998, > 100 µM (inactive); in the assay with A498, > 100 µM (inactive); in the assay with SK-MEL-5, 24.8 µM (inactive). Further, the GI50 is 30.3 µM (inactive) with RPMI-8226; 23.4 µM (inactive) in the assay with SR; 81.8 µM (inactive) in the assay on HOP-62; 58.5 µM (inactive) in the assay with SF-295; 27.7 µM (inactive) with M14; 35.6 µM (inactive) with K562. Besides, the GI50 was > 100 µM (inactive) in the assay with ACHN, 91.8 µM (inactive) in the assay on SN12C, 34 µM (inactive) in the assay with SK-MEL-28 and 45.7 µM (inactive) in the assay with T47D.
`Cc1cc(Cl)ccc1NC(=O)/C(=N\NC(C)(C)C)C(C#N)c1nc(-c2ccc([N+](=O)[O-])cc2)cs1` (stereo not given): the GI50 in the assay with UO-31, with CCRF-CEM, in the assay on Malme-3M, with HCC 2998, in the assay on A498 and with IGROV-1 was > 100 µM (inactive) throughout. Moreover, the GI50 with SK-MEL-5, in the assay on RPMI-8226, with SR, in the assay on HOP-62, in the assay on SF-295 and in the assay with M14 was > 100 µM (inactive) throughout. In addition, the GI50 in the assay on K562, in the assay on ACHN, with SN12C, in the assay on SK-MEL-2 and in the assay with SK-MEL-28 was > 100 µM (inactive) in each case.
